Assay results: ChEMBL document CHEMBL4354823, “Discovery and in Vivo Evaluation of Macrocyclic Mcl-1 Inhibitors Featuring an α-Hydroxy Phenylacetic Acid Pharmacophore or Bioisostere” (J Med Chem, 2019)

Tests used:
in vitro [1] = conditions: human, liver microsomes
in vivo [2] = conditions: Sprague-Dawley, rat, iv, 0.5 mg/kg
in vitro [3] = conditions: rat, liver microsomes
in vivo [4] = conditions: Sprague-Dawley, rat, iv, 0.5 mg/kg; remark: listed apart in the source
in vivo [5] = conditions: Sprague-Dawley, rat, po, 2 mg/kg
physchem [6] = conditions: simulated intestinal fluid, pH 6.6
[7] = rat, in vivo, iv, 0.5 mg/kg
in vitro [8] = conditions: pig, LLC-PK1
physchem [9] = conditions: simulated intestinal fluid, pH 6.6; remark: listed apart in the source
physchem [10] = conditions: simulated gastric fluid, pH 1.7
physchem [11] = conditions: simulated gastric fluid, pH 1.7; remark: listed apart in the source
[12] = Oral bioavailability in CD-1 mouse at 3 mg/kg; type: ADME, organism-based; conditions: in vivo
in vivo [13] = conditions: Beagle, dog, po, 2 mg/kg
in vivo [14] = conditions: Beagle, dog, iv, 0.5 mg/kg
in vivo [15] = conditions: athymic nude, mouse, plasma, po, 30 mg/kg
[16] = Unbound clearance in CD-1 mouse at 1 mg/kg, iv; type: ADME, organism-based; conditions: in vivo
in vivo [17] = conditions: athymic nude, mouse, plasma, po, 60 mg/kg
[18] = rat, in vivo, iv, 0.5 mg/kg; remark: listed apart in the source
[19] = mouse, in vivo, po, 30 mg/kg, 6 h
[20] = Clearance in CD-1 mouse at 1 mg/kg, iv; type: ADME, organism-based; conditions: in vivo
[21] = dog, in vivo, iv, 0.5 mg/kg
[22] = mouse, in vivo, po, 60 mg/kg, 6 h

Compound | microsomal CLint (in vitro [1]) [µL/min/mg] | clearance (in vivo [2]) [mL/min/kg] | microsomal CLint (in vitro [3]) [µL/min/mg] | half-life (in vivo [4]) [h] | bioavailability (in vivo [5]) [%] | also measured
CN1CC/C=C/[C@H](OCCN2CC(F)C2)[C@@H]2CC[C@H]2CN2C[C@@]3(CCCc4cc(Cl)ccc43)COc3ccc(cc32)[C@@](O)(C(=O)NS(=O)(=O)N(C)C)CC1=O | < 14 | 11.7 | < 14 | 4.5 | – | –
COC(=O)[C@@]1(O)CC(=O)N(C)CC/C=C/[C@H](OC)[C@@H]2CC[C@H]2CN2C[C@@]3(CCCc4cc(Cl)ccc43)COc3ccc1cc32 | – | 43.3 | – | 2.5 | 2 | –
CN1CC/C=C/[C@H](OCCN2CCC(F)(F)CC2)[C@@H]2CC[C@H]2CN2C[C@@]3(CCCc4cc(Cl)ccc43)COc3ccc(cc32)[C@@](O)(C(=O)NS(=O)(=O)N(C)C)CC1=O | 43 | – | < 14 | – | – | –
CN(C)C(=O)CO[C@H]1/C=C/CCN(C)C(=O)C[C@](O)(C(=O)NS(=O)(=O)N(C)C)c2ccc3c(c2)N(C[C@@H]2CC[C@H]21)C[C@@]1(CCCc2cc(Cl)ccc21)CO3 | 19 | 21.7 | < 14 | 3.1 | – | –
COC1CN(CCO[C@H]2/C=C/CCN(C)C(=O)C[C@](O)(C(=O)NS(=O)(=O)N(C)C)c3ccc4c(c3)N(C[C@@H]3CC[C@H]32)C[C@@]2(CCCc3cc(Cl)ccc32)CO4)C1 | – | 58.3 | – | 6.3 | 6 | –
CN1CC/C=C/[C@H](OCCOCC(F)F)[C@@H]2CC[C@H]2CN2C[C@@]3(CCCc4cc(Cl)ccc43)COc3ccc(cc32)[C@@](O)(C(=O)NS(=O)(=O)N(C)C)CC1=O | – | 0.833 | – | 6.5 | 41 | –
CN1CC/C=C/[C@H](OCCN2CCOCC2)[C@@H]2CC[C@H]2CN2C[C@@]3(CCCc4cc(Cl)ccc43)COc3ccc(cc32)[C@@](O)(C(=O)NS(=O)(=O)N(C)C)CC1=O | 21 | 15 | < 14 | 2.8 | 9 | –
CO[C@H]1/C=C/CCN(C)C(=O)C[C@](O)(C(=O)O)c2ccc3c(c2)N(C[C@@H]2CC[C@H]21)C[C@@]1(CCCc2cc(Cl)ccc21)CO3 | – | 23.3 to 23.8 | – | 6.8 | 0 | remaining at 1 h, 1 µM (physchem [6]): 100%; CL [7]: 31%; Papp (in vitro [8]): 4.5 ×10⁻⁶ cm/s; remaining at 0.5 h, 1 µM (physchem [9]): 100%; remaining at 0.5 h, 1 µM (physchem [10]): 49%; remaining at 1 h, 1 µM (physchem [11]): 26%
CN1CC/C=C/[C@H](OCCN2CCS(=O)(=O)CC2)[C@@H]2CC[C@H]2CN2C[C@@]3(CCCc4cc(Cl)ccc43)COc3ccc(cc32)[C@@](O)(C(=O)NS(=O)(=O)N(C)C)CC1=O | < 14 | 60 | < 14 | 2.2 | 6 | –
CN1CC/C=C/[C@H](OCCCN2CC(F)(F)C2)[C@@H]2CC[C@H]2CN2C[C@@]3(CCCc4cc(Cl)ccc43)COc3ccc(cc32)[C@@](O)(C(=O)NS(=O)(=O)N(C)C)CC1=O | – | 3.33 | – | 5.5 | 52 | –
CO[C@H]1/C=C/CCN(C)C(=O)C[C@](O)(C(=O)NS(C)(=O)=O)c2ccc3c(c2)N(C[C@@H]2CC[C@H]21)C[C@@]1(CCCc2cc(Cl)ccc21)CO3 | – | 26.7 | – | 2.6 | 8 | –
CO[C@H]1/C=C/C[C@H](C)[C@@H](C)S(=O)(=O)NC(=O)c2ccc3c(c2)N(C[C@@H]2CC[C@H]21)C[C@@]1(CCCc2cc(Cl)ccc21)CO3 [TAPOTOCLAX] | – | 1 | – | 18.2 | 34 | bioavailability [12]: 31%; bioavailability (in vivo [13]): 27%; clearance (in vivo [14]): 0.333 mL/min/kg; remaining at 1 h, 1 µM (physchem [6]): 81%; concentration at 6 h (in vivo [15]): 49.3 µM; CL free [16]: 67 mL/min/kg; concentration at 6 h (in vivo [17]): 70.9 µM; CL free [18]: 138 mL/min/kg; Cp(f) [19]: 0.368 µM; clearance [20]: 0.5 mL/min/kg; remaining at 0.5 h, 1 µM (physchem [9]): 90%; CL free [21]: 22.3 mL/min/kg; remaining at 0.5 h, 1 µM (physchem [10]): 90%; remaining at 1 h, 1 µM (physchem [11]): 84%; Cp(f) [22]: 0.529 µM
